Test: xn = mol fraction of the nth substance listed
Conditions: Liquid, absorption in thin film, x2 = 0

CCCCCCCCn1cc[n+](C)c1.N#CC(=C=[N-])C#N [1-methyl-3-octylimidazolium tricyanomethanide] + O=C=O
Conditions	binary diffusion coefficient [m2/s]
298.15 K, 94 kPa	1.5e-10
298.15 K, 194 kPa	1.9e-10
298.15 K, 293 kPa	1.8e-10
298.15 K, 393 kPa	2e-10
298.15 K, 593 kPa	2e-10
308.15 K, 194 kPa	2.3e-10
308.15 K, 294 kPa	2.4e-10
308.15 K, 393 kPa	2.5e-10
308.15 K, 493 kPa	2.5e-10
308.15 K, 593 kPa	2.5e-10
308.15 K, 693 kPa	2.7e-10
308.15 K, 793 kPa	2.7e-10
308.15 K, 893 kPa	3e-10
308.15 K, 992 kPa	3.1e-10
308.15 K, 1093 kPa	2.7e-10
308.15 K, 1193 kPa	2.5e-10
308.15 K, 1293 kPa	3.2e-10
308.15 K, 1392 kPa	3.3e-10
308.15 K, 1492 kPa	3.5e-10
308.15 K, 1593 kPa	3.4e-10
308.15 K, 1693 kPa	3.8e-10
308.15 K, 1793 kPa	4e-10
308.15 K, 1892 kPa	3.9e-10
308.15 K, 1993 kPa	3.9e-10
323.15 K, 94 kPa	3.2e-10
323.15 K, 194 kPa	3.4e-10
323.15 K, 293 kPa	3.5e-10
323.15 K, 393 kPa	3.3e-10
323.15 K, 493 kPa	3.3e-10
323.15 K, 593 kPa	3.6e-10
323.15 K, 693 kPa	3.9e-10
323.15 K, 793 kPa	4e-10
323.15 K, 893 kPa	3.9e-10
323.15 K, 992 kPa	3.9e-10
323.15 K, 1093 kPa	3.8e-10
323.15 K, 1193 kPa	3.6e-10
323.15 K, 1292 kPa	3.9e-10
323.15 K, 1393 kPa	4e-10
323.15 K, 1493 kPa	4.2e-10
323.15 K, 1593 kPa	4.1e-10
323.15 K, 1692 kPa	4.6e-10
323.15 K, 1793 kPa	3.9e-10
323.15 K, 1892 kPa	4.5e-10
323.15 K, 1993 kPa	4.4e-10
338.25 K, 94 kPa	4.3e-10
338.25 K, 194 kPa	4.1e-10
338.25 K, 294 kPa	4.5e-10
338.25 K, 394 kPa	4.4e-10
338.25 K, 494 kPa	4.2e-10
338.25 K, 593 kPa	4.8e-10
338.25 K, 692 kPa	4.3e-10
338.25 K, 794 kPa	4.7e-10
338.25 K, 892 kPa	4.2e-10
338.25 K, 993 kPa	3.8e-10
338.25 K, 1093 kPa	5e-10
338.25 K, 1193 kPa	5.1e-10
338.25 K, 1292 kPa	5e-10
338.25 K, 1392 kPa	4.9e-10
338.25 K, 1493 kPa	5e-10
338.25 K, 1692 kPa	6e-10
338.25 K, 1793 kPa	5.9e-10
338.25 K, 1892 kPa	5.5e-10
338.25 K, 1993 kPa	5.2e-10
353.25 K, 494 kPa	5.7e-10
353.25 K, 594 kPa	5.5e-10
353.25 K, 993 kPa	6e-10
353.25 K, 1093 kPa	6.7e-10
353.25 K, 1193 kPa	5.1e-10
353.25 K, 1293 kPa	4.7e-10
353.25 K, 1392 kPa	6.5e-10
353.25 K, 1493 kPa	5.6e-10
353.25 K, 1793 kPa	7.6e-10
353.25 K, 1893 kPa	5.8e-10

CCCCCC[n+]1ccn(C)c1.N#C[C-](C#N)C#N [3-hexyl-1-methylimidazolium tricyanomethanide] + O=C=O
Conditions	binary diffusion coefficient [m2/s]
298.15 K, 94 kPa	2e-10
298.15 K, 194 kPa	1.8e-10
298.15 K, 293 kPa	1.8e-10
298.15 K, 393 kPa	2e-10
298.15 K, 493 kPa	2e-10
298.15 K, 693 kPa	2.4e-10
298.15 K, 793 kPa	2.4e-10
298.15 K, 893 kPa	2.4e-10
298.15 K, 993 kPa	2.2e-10
298.15 K, 1193 kPa	3e-10
298.15 K, 1293 kPa	3.2e-10
298.15 K, 1393 kPa	2.9e-10
298.15 K, 1493 kPa	3e-10
298.15 K, 1693 kPa	3.1e-10
298.15 K, 1793 kPa	3.3e-10
308.15 K, 101 kPa	2.6e-10
308.15 K, 198 kPa	2.4e-10
308.15 K, 297 kPa	2.5e-10
308.15 K, 394 kPa	2.5e-10
308.15 K, 494 kPa	2.5e-10
308.15 K, 593 kPa	2.5e-10
308.15 K, 692 kPa	2.7e-10
308.15 K, 793 kPa	2.2e-10
308.15 K, 892 kPa	3.3e-10
308.15 K, 993 kPa	2.9e-10
308.15 K, 1093 kPa	3.1e-10
308.15 K, 1192 kPa	3.3e-10
308.15 K, 1292 kPa	3.3e-10
308.15 K, 1393 kPa	3.4e-10
308.15 K, 1492 kPa	3.4e-10
308.15 K, 1592 kPa	4e-10
308.15 K, 1693 kPa	3.8e-10
308.15 K, 1793 kPa	4.1e-10
308.15 K, 1893 kPa	4e-10
308.15 K, 1993 kPa	4.1e-10
323.15 K, 94 kPa	2.8e-10
323.15 K, 194 kPa	4.1e-10
323.15 K, 293 kPa	3.1e-10
323.15 K, 393 kPa	3.5e-10
323.15 K, 493 kPa	3.9e-10
323.15 K, 594 kPa	4.2e-10
323.15 K, 693 kPa	3.7e-10
323.15 K, 793 kPa	3.7e-10
323.15 K, 893 kPa	3.9e-10
323.15 K, 993 kPa	4e-10
323.15 K, 1093 kPa	3.8e-10
323.15 K, 1193 kPa	4e-10
323.15 K, 1293 kPa	4e-10
323.15 K, 1393 kPa	4.4e-10
323.15 K, 1493 kPa	4.3e-10
323.15 K, 1593 kPa	4.2e-10
323.15 K, 1693 kPa	4.7e-10
323.15 K, 1793 kPa	4.5e-10
323.15 K, 1893 kPa	3.7e-10
323.15 K, 1993 kPa	5.4e-10
338.25 K, 194 kPa	5.1e-10
338.25 K, 294 kPa	3.7e-10
338.25 K, 393 kPa	4.9e-10
338.25 K, 494 kPa	6.7e-10
338.25 K, 693 kPa	4.9e-10
338.25 K, 793 kPa	4.8e-10
338.25 K, 893 kPa	5.8e-10
338.25 K, 993 kPa	5.3e-10
338.25 K, 1092 kPa	5.3e-10
338.25 K, 1193 kPa	5.3e-10
338.25 K, 1292 kPa	5.6e-10
338.25 K, 1393 kPa	4.8e-10
338.25 K, 1493 kPa	5.5e-10
338.25 K, 1592 kPa	4.9e-10
338.25 K, 1693 kPa	6.6e-10
338.25 K, 1792 kPa	6e-10
338.25 K, 1893 kPa	6.1e-10
338.25 K, 1993 kPa	6.3e-10
353.25 K, 594 kPa	6.4e-10
353.25 K, 694 kPa	7.1e-10
353.25 K, 893 kPa	6e-10
353.25 K, 993 kPa	6.5e-10
353.25 K, 1193 kPa	6.3e-10
353.25 K, 1293 kPa	6.8e-10
353.25 K, 1393 kPa	6.3e-10
353.25 K, 1593 kPa	5.3e-10
353.25 K, 1693 kPa	7.6e-10
353.25 K, 1793 kPa	7.7e-10
353.25 K, 1893 kPa	7.7e-10
353.25 K, 1993 kPa	6.7e-10

— the NIST ThermoML archive (doi:10.1021/acs.jced.6b00657)
